Test results from patent publication US20170035793A1, “Use of P2X Purinergic Receptor Agonists to Enhance Insulin Secretion In Pancreatic Beta Cells” (priority 2010, published 2017).
Entries after “also recorded” stand apart in the source; their conditions may differ.

How the values were obtained:
Type in all cases: cell-based
human islets [1] = assay: Dynamic insulin secretion from perifused human islets kept at constant glucose; conditions: for insulin secretory response to the agonist at low glucose: 3 mM glucose, ATP 100 μM (or concentration series), ATPγS 50 μM, BzATP 50 μM, α,β-methylene ATP 50 μM, ADP 100 μM, UTP 100 μM, adenosine 100 μM; for effect on basal insulin secretion: low glucose (3 mM), ARL67156 50 μM, apyrase 5 U/mL
Description: (§1) Islet Isolation. Islets were isolated as previously described (57). Monkey islets were isolated from cynomolgus monkeys (Macacca fascicularis) >4 years of age at the time of pancreas procurement, as previously described (58). Pig pancreata were procured from the local slaughterhouse. Mice (C57BL/6) and rat (Lewis rat; Harlan) islets were isolated using a rodent-islet isolation technique (59). All animal protocols were approved by the University of Miami Care and Use Committee. Human pancreatic islets were obtained from the Human Islet Cell Processing Facility at the Diabetes Research Institute, University of Miami Miller School of Medicine or from the Islet Cell Resource basic science islet distribution program, Islet Cell Resource Centers (ICRs) Consortium, Division of Clinical Research, National Center for Research Resources, National Institutes of Health. Human islets were dissociated into single cells using enzyme-free cell dissociation buffer (Invitrogen). Islets and islets cells from Q:1 all species were cultured identically (37° C. and 5% CO2) inCMRL Q:2 medium-1066 (Invitrogen), niacinamide (10 mM; Sigma), ITS (BD Biosciences), Zn2SO4 (15 μM, Sigma), GlutaMAX (2 mM; Invitrogen), Hepes (25 mM; Sigma), FBS (10%; Invitrogen), and penicillinstreptomycin (100 IU/mL-100 μg/mL; Invitrogen).
(§2) Insulin and Glucagon Secretion. Insulin and glucagon secretion were measured as previously described (8, 36). A high-capacity automated perifusion system was developed to dynamically measure hormone secretion from pancreatic islets. A low pulsatility peristaltic pump pushed Hepes-buffered solution (125 mM NaCl, 5.9 mM KCl, 2.56 mM CaCl2, 1 mM MgCl2, 25 mM Hepes, and 0.1% BSA, pH 7.4 at a perifusion rate of 100 μL/min) through a column containing 100 pancreatic islets immobilized in Bio-Gel P-4 Gel (BioRad). Except when otherwise stated, glucose concentration was adjusted to 3 mM for all experiments. Stimuli were applied with the perifusion buffer. The perifusate was collected in an automatic fraction collector designed for a 96-well plate format. The columns containing the islets and the perifusion solutions were kept at 37° C., and the perifusate in the collecting plate was kept at <4° C. Perifusates were collected every 1 min. Hormone release in the perifusate was determined with the human or mouse Endocrine LINCOplex Kit following manufacturer's instructions (Lincoresearch). Human islet preparations varied considerably in their quality. Thus, the magnitudes of the responses to different stimuli were compared with the same recording or using recordings from the same preparation.

human β cells = assay: [Ca2+]i imaging (Fura-2) of glucose-responsive human islet cells; conditions: for [Ca2+]i response of β cells to the agonist: human β cells identified by response to high glucose (11 or 16 mM), recorded at 3 mM glucose, BzATP 50 μM; for effect on [Ca2+]i responses induced by ATPγS: iso-PPADS, nifedipine 10 μM
Description: as §1
[Ca^2+]i; Imaging. [Ca^2+]i imaging was performed as previously described (8, 36). Dispersed islet cells were immersed in Hepes-buffered solution (125 mMNaCl, 5.9 mMKCl, 2.56 mMCaCl2, 1 mMMgCl2, 25 mMHepes, and 0.1% BSA, pH7.4). Glucose was added to give a final concentration of 3 mM. Islets or dispersed islet cells were incubated in Fura-2 AM (2 μM; 1 h) and placed in a closed small volume imaging chamber (Warner Instruments). Stimuli were applied with the bathing solution. Islets loaded with Fura-2 were excited alternatively at 340 and 380 nm with a monochromator light source (Cairn Research Optoscan Monochromator; Cairn Research Ltd). Images were acquired with a Hamamatsu camera (Hamamatsu) attached to a Zeiss Axiovert 200 microscope (Carl Zeiss). Changes in the 340/380 fluorescence emission ratio over time were analyzed in individual islets and dispersed cells using Kinetic Imaging AQM Advance software (Kinetic Imaging). Peak changes in the fluorescence ratio constituted the response amplitude. Beta cells were distinguished from other endocrine cells by their [Ca^2+]i, responses to high glucose concentrations, and alpha cells were identified by their [Ca^2+]i responses to kainate (glutamate receptor agonist) (8, 36).

human alpha cells = assay: [Ca2+]i imaging (Fura-2) of kainate-responsive human islet cells; conditions: agonist 50 μM; for fraction of kainate-responsive cells that responded with rapid [Ca2+]i increases: human islet cells responding to kainate (100 μM)
human islets [2] = assay: Glucose-induced insulin secretion (glucose raised from 3 mM to 11 mM) in perifused human islets; conditions: glucose 3 mM to 11 mM; for effect on glucose-induced insulin secretion: MRS2159 10 μM, Brilliant Blue G 1 μM, KN-62 1 μM, reactive blue 2 50 μM, MRS2179 10 μM, CGS15943 10 μM, adenosine 100 μM; for reduction of glucose-induced insulin release: apyrase 5 U/mL, suramin 50 μM or 100 μM, iso-PPADS 50 μM, oATP 500 μM
Description: as §1, §2

human islets [3] = assay: ATP-induced (or α,β meATP-induced) insulin secretion in human islets with antagonists or blockers; conditions: ATP 10 μM; for effect on insulin secretion induced by ATP: suramin 100 μM, Cd2+ 100 μM, nifedipine 10 μM, thapsigargin 1 μM
Description: as §1, §2

[4] = human β cells, ATPγS 50 μM, thapsigargin 1 μM

With 2′(3′)-O-(4-Benzoylbenzoyl)ATP [BzATP] the “insulin secretory response to the agonist at low glucose” value (shortened to “insulin secretory response”) (human islets [1]) was “elicited insulin secretory responses; also recorded: elicited strong insulin responses”, the “[Ca2+]i response of β cells to the agonist” value (“[Ca2+]i response of β cells” below) (human β cells; ATPγS 50 μM) was “rapid [Ca^2+]i increases; also recorded: elicited repeatable [Ca^2+]i responses” and the “fraction of kainate-responsive cells that responded with rapid [Ca2+]i increases” value (human alpha cells) was 30%.
In the case of `Nc1ncnc2c1ncn2[C@@H]1O[C@H](COP(=O)(O)OP(=O)(O)O)[C@@H](O)[C@H]1O` [ADP], the “insulin secretory response” value (human islets [1]) is reported as “elicited insulin secretory responses; also recorded: increase insulin release”.
With `CCN(CC)c1ncnc2c1ncn2[C@@H]1O[C@H](COP(=O)(O)OP(=O)(O)C(Br)(Br)P(=O)(O)O)[C@@H](O)[C@H]1O` [ARL67156] the “effect on basal insulin secretion” value (human islets [1]) was “increased basal insulin secretion” and the “effect on glucose-induced insulin secretion” value (human islets [2]) was “did not amplify the β-cell response”.
In the case of `Nc1ncnc2c1ncn2[C@@H]1O[C@H](COP(=O)(O)OP(=O)(O)OP(O)(O)=S)[C@@H](O)[C@H]1O` [ATPγS], the “insulin secretory response” value (human islets [1]) is reported as “elicited insulin secretory responses; also recorded: elicited strong insulin responses”, the “[Ca2+]i response of β cells” value (human β cells; ATPγS 50 μM) is reported as “rapid [Ca^2+]i increases” and the “[Ca2+]i response of β cells” value (human β cells; ATPγS 50 μM, listed as ATP S) is reported as “induced [Ca^2+]i responses”. For the same compound, the “[Ca2+]i responses to the agonist in the nominal absence of extracellular Ca2+” value (human β cells; human β cells, nominal 0 Ca2+ (+1 mM EGTA), ATPγS 50 μM) was “reduced”, the “[Ca2+]i response of alpha cells to the agonist” value (human alpha cells; human alpha cells identified by kainate (100 μM), 3 mM glucose) was “did not respond to ATP S” and the “fraction of kainate-responsive cells that responded with rapid [Ca2+]i increases” value (human alpha cells) was 30%.
In the case of `CCOc1ccc(Nc2ccc(/C(=C3C=C/C(=[N+](/CC)Cc4cccc(S(=O)(=O)[O-])c4)C=C/3C)c3ccc(N(CC)Cc4cccc(S(=O)(=O)[O-])c4)cc3C)cc2)cc1.[Na+]` [Brilliant Blue G], the “effect on glucose-induced insulin secretion” value (human islets [2]) is reported as “not significantly reduced”.
With `CN([C@@H](Cc1ccc(OS(=O)(=O)c2cccc3cnccc23)cc1)C(=O)N1CCN(c2ccccc2)CC1)S(=O)(=O)c1cccc2cnccc12` [KN-62] the “effect on glucose-induced insulin secretion” value (human islets [2]) was “not significantly reduced”.
`Cc1nc(N=Nc2ccc(C(=O)O)cc2)c(COP(=O)(O)O)c(C=O)c1O` [MRS2159] was tested, and the “effect on glucose-induced insulin secretion” value (human islets [2]) was “not significantly reduced”.
With `CNc1ncnc2c1ncn2[C@H]1C[C@H](OP(=O)(O)O)[C@@H](COP(=O)(O)O)O1` [MRS2179] the “effect on glucose-induced insulin secretion” value (human islets [2]) was “did not inhibit glucose induced insulin release”.
For `O=c1ccn([C@@H]2O[C@H](COP(=O)(O)OP(=O)(O)OP(=O)(O)O)[C@@H](O)[C@H]2O)c(=O)[nH]1` [UTP], the “insulin secretory response” value (human islets [1]) was “did not evoke strong insulin responses; also recorded: increase insulin release”.
`Nc1ncnc2c1ncn2[C@@H]1O[C@H](CO)[C@@H](O)[C@H]1O` [adenosine] was tested, and the “insulin secretory response” value (human islets [1]) was “did not evoke strong insulin responses”, the “insulin secretory response” value (human islets [1]; listed as Adenosine) was “minor effect on insulin release” and the “effect on glucose-induced insulin secretion” value (human islets [2]) was “neither the P1 receptor antagonist CGS15943 (10 μM) nor adenosine (100 μM) altered glucose-induced insulin secretion”.
In the case of `Cc1nc(/N=N/c2cc(S(=O)(=O)O)ccc2S(=O)(=O)O)c(COP(=O)(O)O)c(C=O)c1O` [iso-PPADS], the “reduction of glucose-induced insulin release” value (“reduction” for short) (human islets [2]) is reported as 30%, the inhibition at 50 µM (human islets [3]; iso-PPADS 50 μM, read-out: inhibition of insulin responses to ATP) is reported as about 95% and the “effect on insulin secretion induced by ATP” value (human islets [3]; iso-PPADS 50 μM) is reported as “inhibited”. For the same compound, the “block of [Ca2+]i responses to ATP” value (human β cells; human β cells) was 80% and the “effect on [Ca2+]i responses induced by ATPγS” value (human β cells; [4]) was “reduced [Ca^2+]i responses”.
For `Nc1ncnc2c1ncn2[C@@H](C=O)O[C@@H](C=O)COP(=O)(O)OP(=O)(O)OP(=O)(O)O` [oATP, oxidized ATP], the “reduction” value (human islets [2]) was 65%.
With `Nc1c(S(=O)(=O)O)cc(Nc2ccc(Nc3nc(Cl)nc(Nc4cccc(S(=O)(=O)O)c4)n3)c(S(=O)(=O)O)c2)c2c1C(=O)c1ccccc1C2=O` [reactive blue 2] the “effect on glucose-induced insulin secretion” value (human islets [2]) was “did not inhibit glucose induced insulin release”.
In the case of `Cc1ccc(C(=O)Nc2ccc(S(=O)(=O)O)c3cc(S(=O)(=O)O)cc(S(=O)(=O)O)c23)cc1NC(=O)c1cccc(NC(=O)Nc2cccc(C(=O)Nc3cc(C(=O)Nc4ccc(S(=O)(=O)O)c5cc(S(=O)(=O)O)cc(S(=O)(=O)O)c45)ccc3C)c2)c1` [suramin], the “reduction” value (human islets [2]) is reported as 40% and the “effect on insulin secretion induced by ATP” value (human islets [3]; iso-PPADS 50 μM) is reported as “inhibited”.
For `C/C=C(/C)C(=O)O[C@H]1C(C)=C2[C@H]([C@@H]1OC(=O)CCCCCCC)[C@@](C)(OC(C)=O)C[C@H](OC(=O)CCC)[C@@]1(O)[C@H]2OC(=O)[C@@]1(C)O` [thapsigargin], the “effect on insulin secretion induced by ATP” value (human islets [3]; iso-PPADS 50 μM) was “had no effect on insulin responses to ATP”, the “effect on insulin secretion induced by ATP” value (human islets [3]; iso-PPADS 50 μM, listed as Thapsigargin) was “did not affect insulin responses” and the “effect on [Ca2+]i responses induced by ATPγS” value (human β cells; [4]) was “not decreased”. For the same compound, the “effect on [Ca2+]i responses to ATP” value (human β cells; human β cells, thapsigargin 1 μM, nifedipine) was “did not affect [Ca^2+]i responses to ATP”.
`Nc1ncnc2c1ncn2[C@@H]1O[C@H](COP(=O)(O)CP(=O)(O)OP(=O)(O)O)[C@@H](O)[C@H]1O` [α,β-methylene ATP] was tested, and the “insulin secretory response” value (human islets [1]) was “elicited strong insulin responses”, the “insulin responses to the agonist in the nominal absence of extracellular Ca2+” value (human islets [3]; nominal 0 Ca2+ (+1 mM EGTA), α,β meATP 100 μM) was “strongly diminished” and the “[Ca2+]i response of β cells” value (human β cells; ATPγS 50 μM) was “elicited repeatable [Ca^2+]i responses”.
adenosine deaminase was tested, and the “effect of degrading adenosine on the apyrase effect on glucose-stimulated insulin secretion” value (human islets [2]; ADA 1 U/mL added to apyrase 5 U/mL) was “did not change the effect of apyrase on glucose-stimulated insulin secretion”.
With apyrase the “effect on basal insulin secretion” value (human islets [1]) was “did not reduce basal insulin secretion”, the “effect on basal insulin secretion” value (human islets [1]; listed as Apyrase) was “did not change basal insulin secretion” and the “reduction” value (human islets [2]) was about 15%.
